Measured values reported in PMC3173180 (The Journal of Biological Chemistry, 2011).

What was measured:
PfhB2-Fic2 = biological target: T1, PfhB2-Fic2 (Pasteurella multocida, UniProt Q9CPH9); test: SDS-PAGE autoradiography of modified Cdc42; format: biochemical
T1 sequence (Q9CPH9 3309-3609): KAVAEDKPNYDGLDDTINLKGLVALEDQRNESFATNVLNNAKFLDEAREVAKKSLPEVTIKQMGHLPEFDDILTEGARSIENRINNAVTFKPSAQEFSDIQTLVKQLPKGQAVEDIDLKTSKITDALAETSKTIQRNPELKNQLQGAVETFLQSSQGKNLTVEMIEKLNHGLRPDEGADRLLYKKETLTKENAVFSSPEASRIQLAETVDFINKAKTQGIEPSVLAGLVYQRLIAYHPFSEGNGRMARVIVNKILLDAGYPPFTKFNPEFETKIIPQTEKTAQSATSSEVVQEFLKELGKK

HYPE-Fic = biological target: T2, HYPE-Fic (Homo sapiens, UniProt Q9BVA6); test: SDS-PAGE autoradiography of modified Cdc42; format: biochemical
T2 sequence (Q9BVA6 181-458): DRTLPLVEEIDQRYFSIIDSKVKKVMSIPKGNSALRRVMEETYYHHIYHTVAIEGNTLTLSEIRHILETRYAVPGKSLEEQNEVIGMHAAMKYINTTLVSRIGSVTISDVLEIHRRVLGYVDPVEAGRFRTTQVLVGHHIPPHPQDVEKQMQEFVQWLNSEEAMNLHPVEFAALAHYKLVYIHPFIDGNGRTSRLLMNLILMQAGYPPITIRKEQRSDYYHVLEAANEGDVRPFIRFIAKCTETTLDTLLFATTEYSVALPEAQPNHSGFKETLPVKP

PfhB2-Fic1 = biological target: T3, PfhB2-Fic1 (Pasteurella multocida, UniProt Q9CPH9); test: SDS-PAGE autoradiography of modified Cdc42; format: biochemical
T3 sequence (Q9CPH9 2892-3191): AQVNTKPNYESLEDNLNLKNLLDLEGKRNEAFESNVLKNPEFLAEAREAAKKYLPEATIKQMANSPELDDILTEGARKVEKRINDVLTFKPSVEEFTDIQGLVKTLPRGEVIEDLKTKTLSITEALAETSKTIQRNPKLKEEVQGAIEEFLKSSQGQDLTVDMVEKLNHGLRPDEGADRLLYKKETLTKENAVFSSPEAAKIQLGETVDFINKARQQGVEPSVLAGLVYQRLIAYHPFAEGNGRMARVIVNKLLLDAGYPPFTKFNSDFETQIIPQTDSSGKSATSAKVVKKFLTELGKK

IbpA-Fic1 = biological target: T4, IbpA-Fic1 (Histophilus somni, UniProt Q06277); test: SDS-PAGE autoradiography of modified Cdc42; format: biochemical
T4 sequence (Q06277 2994-3358): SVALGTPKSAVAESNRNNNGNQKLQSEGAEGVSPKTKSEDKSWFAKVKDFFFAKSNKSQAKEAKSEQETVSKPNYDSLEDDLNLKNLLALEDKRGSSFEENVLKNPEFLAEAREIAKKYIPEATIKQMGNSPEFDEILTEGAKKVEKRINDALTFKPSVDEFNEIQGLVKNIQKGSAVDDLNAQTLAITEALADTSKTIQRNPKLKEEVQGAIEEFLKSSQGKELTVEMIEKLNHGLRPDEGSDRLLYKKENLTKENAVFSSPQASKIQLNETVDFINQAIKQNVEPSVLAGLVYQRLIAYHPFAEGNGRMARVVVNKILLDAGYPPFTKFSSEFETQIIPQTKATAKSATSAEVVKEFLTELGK

purified protein = substrate: Nc1ncnc2c1ncn2[C@@H]1O[C@H](COP(=O)(O)OP(=O)(O)OP(=O)(O)O)[C@@H](O)[C@H]1O; test: purified protein; details: pH 7.4; 25.0 °C

Nc1ncnc2c1ncn2[C@@H]1O[C@H](COP(=O)(O)OP(=O)(O)OP(=O)(O)O)[C@@H](O)[C@H]1O [ATP]
SDS-PAGE autoradiography of modified Cdc42 (PfhB2-Fic2): ATP was the preferred nucleotide source for all the Fic domains tested
SDS-PAGE autoradiography of modified Cdc42 (HYPE-Fic): HYPE-Fic efficiently uses ATP, and CTP to a lesser degree, to modify Cdc42
SDS-PAGE autoradiography of modified Cdc42 (PfhB2-Fic1): ATP was the preferred nucleotide source for all the Fic domains tested
SDS-PAGE autoradiography of modified Cdc42 (IbpA-Fic1): ATP was the preferred nucleotide source for all the Fic domains tested

B1: IbpA-Fic2 (untagged) (Histophilus somni 2336) (protein)
chain: DETANKVNYQDLEDNLNLKGLISLEDDRNANFESNVLKNEKFLDEAREISKKSIPEATVKQMSHLPEFDDILTEGAKKVESRINKAITFRPSVEEFSEIQDLVKTLPKTKVIEDLSTKTNEITEALAATSKTIQRTPELKEQLKTAIEDFLQNSQGKPLTVQMIENLNHGLRPDEGEGRLLYKKENLTKENAVFSSPEAAKIQLAETVDFINRAKNEGIEPSVVGALVYQRLIAYHPFAEGNGRMARVIVNKILLDAGYPAFTKFSDEFEPQIIPQTKASTKSATSSEVVVEFLKELAKKGSKEDNEQNLEKTDRT
Km (purified protein): 730 ± 40 µM
kcat (purified protein): 111 ± 2 s⁻¹
